In one experiment the test system is Mc3r of spiny dogfish. Conditions: ref [3]; cited from earlier work.
The next experiment concerns Mc3r of channel catfish. Conditions: ref [12]; cited from earlier work.
The target of experiment [1] is omMc3r. Put plainly: MAPK/ERK (ERK1/2) signaling, SRE luciferase reporter (pGL4.33) assay. Type of experiment: cell-based, Onychostoma macrolepis. Here is the method:
(§1) In order to test whether omMc3r can be activated by ligands in vitro, we sub-cloned the coding region of omMc3r into pcDNA3.1 (+) vector (Invitrogen, Carlsbad, CA, USA) for subsequent transfection of cells. The constructed vector was further verified by sequencing before use.
(§2) Human embryonic kidney (HEK293T) cells were cultured in Dulbecco modified Eagle’s medium (DMEM, Invitrogen, Carlsbad, CA, USA) supplemented with 10% fetal bovine serum (FBS, Biological Industries, Kibbutz Beit Haemek, Israel) and placed in a humid environment containing 5% CO2 at 37 °C. Cells were passaged every 2 days.
(§3) This study employed the luciferase reporter system to examine whether the four ligands can activate downstream signals through omMc3r. The luciferase reporter vector pGL4.29 and pGL4.33 of Promega (Madison, WI, USA) contain cAMP respose element (CRE) and serum response element (SRE) in their promoter regions, which can monitor the activation of cAMP and MAPK/ERK signaling pathways, respectively. The brief operating procedure was as follows: the HEK293T cells were passaged to a 6-well plate 24 h before transfection. […] An Infinite F200 microplate reader (Tecan, Männedorf, Switzerland) was used to measure the luciferase activities. […]
For orientation: In a reporter assay the amount or activity of a reporter protein is the signal.

The target of experiment [2] is omMc3r. Put plainly: cAMP signaling, CRE luciferase reporter (pGL4.29) assay. It is filed as cell-based, Onychostoma macrolepis. As to conditions: pGL4.29 (CRE) luciferase reporter. As for the experimental part: as §1, §2, §3
In another experiment the test system is Human MC3R. Conditions: ref [3]; cited from earlier work.

“Also recorded” adds a separate entry of the source.

For the substance adrenocorticotropin [ACTH], the “ligand affinity of spiny dogfish Mc3r (in words)” value with Mc3r of spiny dogfish is recorded as “highest affinity”. Besides, the “ligand affinity of channel catfish Mc3r (in words)” value with Mc3r of channel catfish is given as “highest affinity”.
“β-melanocyte-stimulating hormone [β-MSH]”: the EC50 at omMc3r [1] (HEK293T cells co-transfected with omMc3r plasmid and pGL4.33 (SRE) luciferase reporter, ligand 6 h in serum-free DMEM, fold change vs serum-free DMEM, nonlinear regression, mean ± SEM (n = 3, figure legend: mean (SD) of three independent experiments), read-out: EC50, ERK1/2 Response) is 4850 ± 10.7 nM; on omMc3r [2] (HEK293T cells transiently transfected with omMc3r plasmid, ligand 6 h in serum-free DMEM, fold change vs serum-free DMEM, nonlinear regression, mean ± SEM (n = 3, figure legend: mean (SD) of three independent experiments), read-out: EC50, cAMP Response), 270 ± 4.95 nM. The “activation of MAPK/ERK signaling through omMc3r (in words)” value with omMc3r [1] (HEK293T cells, pGL4.33 (SRE) luciferase reporter, ligand 6 h) was “can all activate the cAMP and MAPK/ERK signaling pathway; also recorded: can activate cAMP and MAPK/ERK signaling pathways in a dose-dependent manner; also recorded: could potently activate the Gαs-cAMP and MAPK/ERK signaling pathway through omMc3r; also recorded: could activate cAMP and the MAPK/ERK signaling through omMc3r with different degrees of potency”. Further, the “activation of cAMP signaling through omMc3r (in words)” value in the experiment on omMc3r [2] (HEK293T cells, ligand 6 h) is “can all activate the cAMP and MAPK/ERK signaling pathway; also recorded: can activate cAMP and MAPK/ERK signaling pathways in a dose-dependent manner; also recorded: could potently activate the Gαs-cAMP and MAPK/ERK signaling pathway through omMc3r; also recorded: could activate cAMP and the MAPK/ERK signaling through omMc3r with different degrees of potency”.
As for “γ-melanocyte-stimulating hormone [γ-MSH]”, the “ligand preference of human MC3R (in words)” value in the experiment with Human MC3R is on record as “unique preference”.
